Test results as given in US12568972B2, “Pyridazinol compounds and derivatives, preparation methods, herbicidal compositions and applications thereof” (Qingdao Kingagroot Chemical Compound Co., Ltd., priority 2018, dated 2026).

Experiments:
Experiment in all cases: Post-emergence test, weed control effect
Assay type in all cases: in vivo
Conditions in all cases: Dose 3000 g/ha, after 3 weeks
Veronica polita = tested on: Veronica polita
Method in brief: (§1)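 Weeds grown from seed in soil-filled pots in a greenhouse were sprayed at the 2-3 leaf stage, 2-3 weeks after sowing, with compound in acetone/Tween-80/water plus 80% vegetable oil methyl ester synergist at 1500 g/ha. Fresh-weight inhibition was scored on a 0-10 scale after 3 weeks.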

Chenopodiaceae = tested on: Chenopodiaceae
Method in brief: as §1

Amaranthus retroflexus = tested on: Amaranthus retroflexus
Method in brief: as §1

Rorippa indica = tested on: Rorippa indica
Method in brief: as §1

Oc1cc(C(F)(F)F)nnc1-c1ccc(Br)nc1 [Compound 966]
10: weed control effect (activity level), Veronica polita (Veronica polita) | weed control effect (activity level), Chenopodiaceae (Chenopodiaceae) | weed control effect (activity level), Amaranthus retroflexus (Amaranthus retroflexus) | weed control effect (activity level), Rorippa indica (Rorippa indica)

Oc1cc(C(F)(F)F)nnc1-c1cncc(Br)c1 [Compound 967]
10: weed control effect (activity level), Veronica polita (Veronica polita) | weed control effect (activity level), Chenopodiaceae (Chenopodiaceae) | weed control effect (activity level), Amaranthus retroflexus (Amaranthus retroflexus) | weed control effect (activity level), Rorippa indica (Rorippa indica)

Oc1cc(C(F)(F)F)nnc1-c1cnccc1Br [Compound 968]
10: weed control effect (activity level), Veronica polita (Veronica polita) | weed control effect (activity level), Chenopodiaceae (Chenopodiaceae) | weed control effect (activity level), Amaranthus retroflexus (Amaranthus retroflexus) | weed control effect (activity level), Rorippa indica (Rorippa indica)

Oc1cc(C(F)(F)F)nnc1-c1cccnc1I [Compound 969]
10: weed control effect (activity level), Veronica polita (Veronica polita) | weed control effect (activity level), Chenopodiaceae (Chenopodiaceae) | weed control effect (activity level), Amaranthus retroflexus (Amaranthus retroflexus) | weed control effect (activity level), Rorippa indica (Rorippa indica)

Oc1cc(C(F)(F)F)nnc1-c1ccc(I)nc1 [Compound 970]
10: weed control effect (activity level), Veronica polita (Veronica polita) | weed control effect (activity level), Chenopodiaceae (Chenopodiaceae) | weed control effect (activity level), Amaranthus retroflexus (Amaranthus retroflexus) | weed control effect (activity level), Rorippa indica (Rorippa indica)

Oc1cc(C(F)(F)F)nnc1-c1cncc(I)c1 [Compound 971]
10: weed control effect (activity level), Veronica polita (Veronica polita) | weed control effect (activity level), Chenopodiaceae (Chenopodiaceae) | weed control effect (activity level), Amaranthus retroflexus (Amaranthus retroflexus) | weed control effect (activity level), Rorippa indica (Rorippa indica)

Oc1cc(C(F)(F)F)nnc1-c1cnccc1I [Compound 972]
10: weed control effect (activity level), Veronica polita (Veronica polita) | weed control effect (activity level), Chenopodiaceae (Chenopodiaceae) | weed control effect (activity level), Amaranthus retroflexus (Amaranthus retroflexus) | weed control effect (activity level), Rorippa indica (Rorippa indica)

Cc1ncccc1-c1nnc(C(F)(F)F)cc1O [Compound 973]
10: weed control effect (activity level), Veronica polita (Veronica polita) | weed control effect (activity level), Chenopodiaceae (Chenopodiaceae) | weed control effect (activity level), Amaranthus retroflexus (Amaranthus retroflexus) | weed control effect (activity level), Rorippa indica (Rorippa indica)

Cc1ccc(-c2nnc(C(F)(F)F)cc2O)cn1 [Compound 974]
10: weed control effect (activity level), Veronica polita (Veronica polita) | weed control effect (activity level), Chenopodiaceae (Chenopodiaceae) | weed control effect (activity level), Amaranthus retroflexus (Amaranthus retroflexus) | weed control effect (activity level), Rorippa indica (Rorippa indica)

Cc1ccncc1-c1nnc(C(F)(F)F)cc1O [Compound 975]
10: weed control effect (activity level), Veronica polita (Veronica polita) | weed control effect (activity level), Chenopodiaceae (Chenopodiaceae) | weed control effect (activity level), Amaranthus retroflexus (Amaranthus retroflexus) | weed control effect (activity level), Rorippa indica (Rorippa indica)

Oc1cc(C(F)(F)F)nnc1-c1cccnc1C(F)(F)F [Compound 976]
10: weed control effect (activity level), Veronica polita (Veronica polita) | weed control effect (activity level), Chenopodiaceae (Chenopodiaceae) | weed control effect (activity level), Amaranthus retroflexus (Amaranthus retroflexus) | weed control effect (activity level), Rorippa indica (Rorippa indica)

Oc1cc(C(F)(F)F)nnc1-c1cncc(C(F)(F)F)c1 [Compound 977]
10: weed control effect (activity level), Veronica polita (Veronica polita) | weed control effect (activity level), Chenopodiaceae (Chenopodiaceae) | weed control effect (activity level), Amaranthus retroflexus (Amaranthus retroflexus) | weed control effect (activity level), Rorippa indica (Rorippa indica)

Oc1cc(C(F)(F)F)nnc1-c1cnccc1C(F)(F)F [Compound 978]
10: weed control effect (activity level), Veronica polita (Veronica polita) | weed control effect (activity level), Chenopodiaceae (Chenopodiaceae) | weed control effect (activity level), Amaranthus retroflexus (Amaranthus retroflexus) | weed control effect (activity level), Rorippa indica (Rorippa indica)

N#Cc1ncccc1-c1nnc(C(F)(F)F)cc1O [Compound 979]
10: weed control effect (activity level), Veronica polita (Veronica polita) | weed control effect (activity level), Chenopodiaceae (Chenopodiaceae) | weed control effect (activity level), Amaranthus retroflexus (Amaranthus retroflexus) | weed control effect (activity level), Rorippa indica (Rorippa indica)

N#Cc1ccncc1-c1nnc(C(F)(F)F)cc1O [Compound 980]
10: weed control effect (activity level), Veronica polita (Veronica polita) | weed control effect (activity level), Chenopodiaceae (Chenopodiaceae) | weed control effect (activity level), Amaranthus retroflexus (Amaranthus retroflexus) | weed control effect (activity level), Rorippa indica (Rorippa indica)

N#Cc1ccc(-c2nnc(C(F)(F)F)cc2O)cn1 [Compound 983]
10: weed control effect (activity level), Veronica polita (Veronica polita) | weed control effect (activity level), Chenopodiaceae (Chenopodiaceae) | weed control effect (activity level), Amaranthus retroflexus (Amaranthus retroflexus) | weed control effect (activity level), Rorippa indica (Rorippa indica)

N#Cc1cncc(-c2nnc(C(F)(F)F)cc2O)c1 [Compound 984]
10: weed control effect (activity level), Veronica polita (Veronica polita) | weed control effect (activity level), Chenopodiaceae (Chenopodiaceae) | weed control effect (activity level), Amaranthus retroflexus (Amaranthus retroflexus) | weed control effect (activity level), Rorippa indica (Rorippa indica)

Oc1cc(C(F)(F)F)nnc1-c1cc(F)cnc1F [Compound 986]
10: weed control effect (activity level), Veronica polita (Veronica polita) | weed control effect (activity level), Chenopodiaceae (Chenopodiaceae) | weed control effect (activity level), Amaranthus retroflexus (Amaranthus retroflexus) | weed control effect (activity level), Rorippa indica (Rorippa indica)

Oc1cc(C(F)(F)F)nnc1-c1c(F)ccnc1F [Compound 987]
10: weed control effect (activity level), Veronica polita (Veronica polita) | weed control effect (activity level), Chenopodiaceae (Chenopodiaceae) | weed control effect (activity level), Amaranthus retroflexus (Amaranthus retroflexus) | weed control effect (activity level), Rorippa indica (Rorippa indica)

Oc1cc(C(F)(F)F)nnc1-c1cnc(F)c(F)c1 [Compound 988]
10: weed control effect (activity level), Veronica polita (Veronica polita) | weed control effect (activity level), Chenopodiaceae (Chenopodiaceae) | weed control effect (activity level), Amaranthus retroflexus (Amaranthus retroflexus) | weed control effect (activity level), Rorippa indica (Rorippa indica)

Oc1cc(C(F)(F)F)nnc1-c1cnc(F)cc1F [Compound 989]
10: weed control effect (activity level), Veronica polita (Veronica polita) | weed control effect (activity level), Chenopodiaceae (Chenopodiaceae) | weed control effect (activity level), Amaranthus retroflexus (Amaranthus retroflexus) | weed control effect (activity level), Rorippa indica (Rorippa indica)

Oc1cc(C(F)(F)F)nnc1-c1cncc(F)c1F [Compound 990]
10: weed control effect (activity level), Veronica polita (Veronica polita) | weed control effect (activity level), Chenopodiaceae (Chenopodiaceae) | weed control effect (activity level), Amaranthus retroflexus (Amaranthus retroflexus) | weed control effect (activity level), Rorippa indica (Rorippa indica)

Oc1cc(C(F)(F)F)nnc1-c1ccc(Cl)nc1Cl [Compound 991]
10: weed control effect (activity level), Veronica polita (Veronica polita) | weed control effect (activity level), Chenopodiaceae (Chenopodiaceae) | weed control effect (activity level), Amaranthus retroflexus (Amaranthus retroflexus) | weed control effect (activity level), Rorippa indica (Rorippa indica)

Oc1cc(C(F)(F)F)nnc1-c1cc(Cl)cnc1Cl [Compound 992]
10: weed control effect (activity level), Veronica polita (Veronica polita) | weed control effect (activity level), Chenopodiaceae (Chenopodiaceae) | weed control effect (activity level), Amaranthus retroflexus (Amaranthus retroflexus) | weed control effect (activity level), Rorippa indica (Rorippa indica)

Oc1cc(C(F)(F)F)nnc1-c1c(Cl)ccnc1Cl [Compound 993]
10: weed control effect (activity level), Veronica polita (Veronica polita) | weed control effect (activity level), Chenopodiaceae (Chenopodiaceae) | weed control effect (activity level), Amaranthus retroflexus (Amaranthus retroflexus) | weed control effect (activity level), Rorippa indica (Rorippa indica)

Oc1cc(C(F)(F)F)nnc1-c1cnc(Cl)c(Cl)c1 [Compound 994]
10: weed control effect (activity level), Veronica polita (Veronica polita) | weed control effect (activity level), Chenopodiaceae (Chenopodiaceae) | weed control effect (activity level), Amaranthus retroflexus (Amaranthus retroflexus) | weed control effect (activity level), Rorippa indica (Rorippa indica)

Oc1cc(C(F)(F)F)nnc1-c1cnc(Cl)cc1Cl [Compound 995]
10: weed control effect (activity level), Veronica polita (Veronica polita) | weed control effect (activity level), Chenopodiaceae (Chenopodiaceae) | weed control effect (activity level), Amaranthus retroflexus (Amaranthus retroflexus) | weed control effect (activity level), Rorippa indica (Rorippa indica)

Oc1cc(C(F)(F)F)nnc1-c1cncc(Cl)c1Cl [Compound 996]
10: weed control effect (activity level), Veronica polita (Veronica polita) | weed control effect (activity level), Chenopodiaceae (Chenopodiaceae) | weed control effect (activity level), Amaranthus retroflexus (Amaranthus retroflexus) | weed control effect (activity level), Rorippa indica (Rorippa indica)

Oc1cc(C(F)(F)F)nnc1-c1ccc(Cl)nc1F [Compound 997]
10: weed control effect (activity level), Veronica polita (Veronica polita) | weed control effect (activity level), Chenopodiaceae (Chenopodiaceae) | weed control effect (activity level), Amaranthus retroflexus (Amaranthus retroflexus) | weed control effect (activity level), Rorippa indica (Rorippa indica)

Oc1cc(C(F)(F)F)nnc1-c1cc(Cl)cnc1F [Compound 998]
10: weed control effect (activity level), Veronica polita (Veronica polita) | weed control effect (activity level), Chenopodiaceae (Chenopodiaceae) | weed control effect (activity level), Amaranthus retroflexus (Amaranthus retroflexus) | weed control effect (activity level), Rorippa indica (Rorippa indica)

Oc1cc(C(F)(F)F)nnc1-c1c(Cl)ccnc1F [Compound 999]
10: weed control effect (activity level), Veronica polita (Veronica polita) | weed control effect (activity level), Chenopodiaceae (Chenopodiaceae) | weed control effect (activity level), Amaranthus retroflexus (Amaranthus retroflexus) | weed control effect (activity level), Rorippa indica (Rorippa indica)
